Results published in patent US6914045B2, “Glycopeptide antibiotics” (Wyeth Holdings Corporation, priority 2001, dated 2005).
≈ marks a conversion by molar mass, not a printed value.

Legend:
Test in all cases: in vitro antibacterial evaluation, MIC by broth dilution
Assay type in all cases: cell-based
Streptococcus sp. = conditions: broth dilution, 18 hours at 35° C.
Protocol: (§1) Methods for in vitro Antibacterial Evaluation (Table 1)
(§2) The minimum inhibitory concentration (MIC), the lowest concentration of the antibiotic which inhibits growth of the test organism, is determined by the broth dilution method using Muller-Hinton II […] (Baltimore Biological Laboratories) following the recommendations of the National Committee for Clinical Laboratory Standards [Methods for dilution antimicrobial susceptibility tests for bacteria that grow aerobically, approved standard M7-A2, National Committee for Clinical Laboratory Standards, Villanova, Pa.].
(§3) An inoculum level of 5×10^5 CFU/mL, and a range of antibiotic concentrations (64-0.06 μg/mL) is used. […] The test organisms include a spectrum of Gram-positive bacteria comprised of Staphylococcus sp., Streptococcus sp. and Enterococcus sp. These organisms include recent clinical isolates that are resistant to methicillin, penicillin and/or vancomycin.

Enterococcus sp. = conditions: broth dilution, 18 hours at 35° C.
Protocol: as §1, §2, §3

Staphylococcus sp. = conditions: broth dilution, 18 hours at 35° C.
Protocol: as §1, §2, §3

Escherichia coli = conditions: 18 hours at 35° C.
Summary of the method: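 Broth dilution in Muller-Hinton II medium per NCCLS standard M7-A2, with an inoculum of 5×10^5 CFU/mL and antibiotic tested over 64-0.06 μg/mL. MIC was taken as the lowest concentration inhibiting visible growth.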

`CCCC(CCC)C(=O)OCC1OC(Oc2ccc(CC3NC(=O)C(C(C)c4ccccc4)NC(=O)CNC(=O)C(CO)NC(=O)C(C(O)C4CNC(=N)N4C4OC(CO)C(O)C(O)C4O)NC(=O)C(C(O)C4CNC(=N)N4)NC3=O)cc2)C(O)C(O)C1OC1OC(CO)C(O)C(O)C1O` (stereo not drawn) [Example 99b, Cyclo[glycyl-β-methylphenylalanyl-O-[4-O-hexopyranosyl-6-O-(2-propylpentanoyl)hexopyranosyl]tyrosyl-3-(2-iminoimidazolidin-4-yl)seryl-3-(3-hexopyranosyl-2-iminoimidazolidin-4-yl)serylseryl]] was tested, and the “MIC Streptococcus agalactiae (GC 4564)” value (Streptococcus sp.; Streptococcus agalactiae (GC 4564)) was 2 µg/mL (≈ 1.41 µM), the “MIC Streptococcus pneumoniae (GC 4565)” value (Streptococcus sp.; Streptococcus pneumoniae (GC 4565)) was under 0.5 µg/mL and the “MIC Streptococcus pyogenes (ID-3187)” value (Streptococcus sp.; Streptococcus pyogenes (ID-3187)) was 1 µg/mL (≈ 0.703 µM). The “MIC Streptococcus agalactiae (GC 4564)” value (Streptococcus sp.) was 2 µg/mL (≈ 1.41 µM), the “MIC Streptococcus pneumoniae (GC 4565)” value (Streptococcus sp.) was under 0.5 µg/mL and the “MIC Streptococcus pyogenes (ID-3187)” value (Streptococcus sp.) was 1 µg/mL (≈ 0.703 µM). The “MIC Enterococcus avium (GC 4558)” value (Enterococcus sp.; Enterococcus avium (GC 4558)) was 16 µg/mL (≈ 11.3 µM), the “MIC Enterococcus faecalis (ATCC 29212)” value (Enterococcus sp.; Enterococcus faecalis (ATCC 29212)) was 16 µg/mL (≈ 11.3 µM) and the “MIC Enterococcus faecalis (GC 2242)” value (Enterococcus sp.; Enterococcus faecalis (GC 2242)) was 16 µg/mL (≈ 11.3 µM). The “MIC Enterococcus faecalis (GC 4552)” value (Enterococcus sp.; Enterococcus faecalis (GC 4552)) was 32 µg/mL (≈ 22.5 µM), the “MIC Enterococcus faecalis (GC 4553)” value (Enterococcus sp.; Enterococcus faecalis (GC 4553)) was 16 µg/mL (≈ 11.3 µM) and the “MIC Enterococcus faecalis (GC 4554)” value (Enterococcus sp.; Enterococcus faecalis (GC 4554)) was 32 µg/mL (≈ 22.5 µM). For the same compound, the “MIC Enterococcus faecium (GC 2243)” value (Enterococcus sp.; Enterococcus faecium (GC 2243)) was 16 µg/mL (≈ 11.3 µM), the “MIC Enterococcus faecium (GC 4556)” value (Enterococcus sp.; Enterococcus faecium (GC 4556)) was 16 µg/mL (≈ 11.3 µM) and the “MIC Enterococcus faecium (GC 4557)” value (Enterococcus sp.; Enterococcus faecium (GC 4557)) was 4 µg/mL (≈ 2.81 µM). The “MIC Enterococcus avium (GC 4558)” value (Enterococcus sp.) was 16 µg/mL (≈ 11.3 µM), the “MIC Enterococcus faecalis (ATCC 29212)” value (Enterococcus sp.) was 16 µg/mL (≈ 11.3 µM) and the “MIC Enterococcus faecalis (GC 2242)” value (Enterococcus sp.) was 16 µg/mL (≈ 11.3 µM). The “MIC Enterococcus faecalis (GC 4552)” value (Enterococcus sp.) was 32 µg/mL (≈ 22.5 µM), the “MIC Enterococcus faecalis (GC 4553)” value (Enterococcus sp.) was 16 µg/mL (≈ 11.3 µM) and the “MIC Enterococcus faecalis (GC 4554)” value (Enterococcus sp.) was 32 µg/mL (≈ 22.5 µM). The “MIC Enterococcus faecium (GC 2243)” value (Enterococcus sp.) was 16 µg/mL (≈ 11.3 µM), the “MIC Enterococcus faecium (GC 4556)” value (Enterococcus sp.) was 16 µg/mL (≈ 11.3 µM) and the “MIC Enterococcus faecium (GC 4557)” value (Enterococcus sp.) was 4 µg/mL (≈ 2.81 µM). For the same compound, the “MIC Coagulase Negative Staphylococcus (GC 4547)” value (Staphylococcus sp.) was 4 µg/mL (≈ 2.81 µM), the “MIC Coagulase Negative Staphylococcus (GC 4548)” value (Staphylococcus sp.) was 4 µg/mL (≈ 2.81 µM) and the “MIC Coagulase Negative Staphylococcus (GC 4549)” value (Staphylococcus sp.) was 2 µg/mL (≈ 1.41 µM). For the same compound, the “MIC Coagulase Negative Staphylococcus (GC 4551)” value (Staphylococcus sp.) was 8 µg/mL (≈ 5.63 µM), the “MIC Coagulase Negative Staphylococcus (ID-3941)” value (Staphylococcus sp.) was 2 µg/mL (≈ 1.41 µM) and the “MIC Staphylococcus aureus-SMITH (GC 4543)” value (Staphylococcus sp.) was 4 µg/mL (≈ 2.81 µM). The “MIC Staphylococcus haemolyticus (GC 4546)” value (Staphylococcus sp.) was 4 µg/mL (≈ 2.81 µM), the “MIC Staphylococcus haemolyticus (GC 4546)” value (Staphylococcus sp.; strain GC 4546) was 4 µg/mL (≈ 2.81 µM) and the “MIC Coagulase Negative Staphylococcus (GC 4547)” value (Staphylococcus sp.; strain GC 4547) was 4 µg/mL (≈ 2.81 µM). The “MIC Coagulase Negative Staphylococcus (GC 4548)” value (Staphylococcus sp.; strain GC 4548) was 4 µg/mL (≈ 2.81 µM), the “MIC Coagulase Negative Staphylococcus (GC 4549)” value (Staphylococcus sp.; strain GC 4549) was 2 µg/mL (≈ 1.41 µM) and the “MIC Coagulase Negative Staphylococcus (GC 4551)” value (Staphylococcus sp.; strain GC 4551) was 8 µg/mL (≈ 5.63 µM). For the same compound, the “MIC Coagulase Negative Staphylococcus (ID-3941)” value (Staphylococcus sp.; strain ID-3941) was 2 µg/mL (≈ 1.41 µM), the “MIC Staphylococcus aureus-SMITH (GC 4543)” value (Staphylococcus sp.; strain SMITH GC 4543) was 4 µg/mL (≈ 2.81 µM) and the “MIC Staphylococcus aureus (ATCC 29213)” value (Staphylococcus sp.; strain ATCC 29213) was 4 µg/mL (≈ 2.81 µM). For the same compound, the “MIC Staphylococcus aureus (GC 1131)” value (Staphylococcus sp.; strain GC 1131) was 4 µg/mL (≈ 2.81 µM), the “MIC Staphylococcus aureus (GC 4541)” value (Staphylococcus sp.; strain GC 4541) was 4 µg/mL (≈ 2.81 µM) and the “MIC Staphylococcus aureus (GC 4542)” value (Staphylococcus sp.; strain GC 4542) was 4 µg/mL (≈ 2.81 µM). For the same compound, the “MIC Staphylococcus aureus (GC 4544)” value (Staphylococcus sp.; strain GC 4544) was 4 µg/mL (≈ 2.81 µM), the “MIC Staphylococcus aureus (GC 4545)” value (Staphylococcus sp.; strain GC 4545) was 4 µg/mL (≈ 2.81 µM) and the “MIC Escherichia coli (ATCC 25922)” value (Escherichia coli) was over 64 µg/mL.
